Test results published in patent publication US20040167034A1, “Emulsion and dispersion formulations and method” (priority 2001, published 2004).

Columns and labels:
[1] = background statement; cited from earlier work
[2] = Stability of closantel and levamisole combination at 30° C. (HPLC); format: physicochemical; details: closantel and levamisole combination incubated at 30° C.
Method: Stability of Closantel and Levamisole Combination at 30° C.
The mixture was analysed by HPLC at times zero, 3 and 12 months.

[3] = Pharmacokinetics of silymarin (plasma silybin a and b, HPLC); details: in vivo, 260 mg
Method: Pharmacokinetics of silymarin administered in various delivery systems, comparing a powdered extract of silymarin containing 28% silybin a and b and a silymarin:lecithin complex as described in Example 2 of silymarin containing the same amount of silybin a and b.
Silymarin was administered at a dose of 260 mg silybin a and b.
Blood samples were collected at 0, 2, 4, and 6 hours after administration and analysed by HPLC.
Silybin a and b were analysed as conjugated and unconjugated silybin a and b.

| Molecule | absorption [1] | content at 0 months [2] [g %] | content at 3 months [2] [g %] | content at 12 months [2] [g %] | AUC of conjugated silybin A and B [3] [ng/h/mL] | AUC of free silybin A and B [3] [ng/h/mL] |
| --- | --- | --- | --- | --- | --- | --- |
| [Cr] [chromium] | 1-3% | – | – | – | – | – |
| Cc1cc(C(C#N)c2ccc(Cl)cc2)c(Cl)cc1NC(=O)c1cc(I)cc(I)c1O (stereo not drawn) [closantel] | – | 3.75 | 3.72 | 3.69 | – | – |
| c1ccc([C@H]2CN3CCSC3=N2)cc1 [levamisole] | – | 3.21 | 3.19 | 3.17 | – | – |
| Silymarin | – | – | – | – | 191 | 6 |
